Measured values published in patent publication US20040242870A1, “Antiviral methods and compounds” (priority 2000, published 2004).
Read-outs that look alike come from different tables or passages of the source.

Tests used:
HIV-1 = experiment: HeLa CD4 LTR β-gal HIV-1 attachment assay; format: cell-based; conditions: for IC50: Human immunodeficiency virus 1, HeLa; for β-galactosidase production versus background: cells alone+compounds, at all times
Method: The attachment assay was performed with the HeLa CD4 LTR , β-gal cells available from the AIDS Research and Reference Reagent Repository. […] HeLa CD4 LTR β-gal cells express cell surface CD4 and contain an LTR β-galactosidase reporter construct. Upon infection either the Tat protein incorporated into the virion or new Tat produced following virus integration and transcription trans-activates the LTR β-gal reporter, leading to expression of the β-galactosidase enzyme. HeLa CD4 LTR β-gal cells are routinely cultured with the required selection antibiotics and screened for mycoplasma contamination. Twenty-four h prior to initiation of the assay cells were trypsinized, counted and 1×10^4 cells placed in a 0.2 cm well in media without selection antibiotics. […] A known titer of virus was then added to the wells and the incubation continued for 1 h. At the end of the incubation the wells were washed 6 times with media and the culture continued for 48 h. At 48 h the wells were washed one time with PBS and β-galactosidase enzyme expression determined by chemiluminescence per manufacturers instructions (Tropix Gal-screen™, Tropix, Bedford, Mass.). Compound toxicity was monitored on sister plates using MTS dye reduction.

PBMCs [1] = experiment: Cell cycle analysis of PBMCs by flow cytometry; format: cell-based, Human
Method: Flow cytometry studies were carried out on PHA/IL-2 induced PBMCs treated for 6 days with the various test compounds. Prior to flow cytometry the PBMCs were washed, counted and 1×10^6 cells resuspended in PBS and stained for CD4 or CD8 surface markers using anti-CD4.PE or CD8.PE (both from PharMingen) for 30 min at 4° C. The PBMC were then washed, fixed (Cytofix) and permeabilized (Cytoperm) followed by staining for apoptosis-related DNA damage. Initial experiments used the BrdU Flow Kit from PharMigen (2354KK). This kit with the appropriate software should have yielded percent apoptosis along with the number of cells in each phase of the cell cycle. However, we were not successful with this kit and subsequently used the data to look at only the distribution in the cell cycle of the PBMCs following drug treatment. We were successful in detecting apoptosis in PBMCs with the PharMingen APO-BRDU™ kit (6576KK). Using this kit, we were not able to co-stain for CD4 and CD8 due to the fluorescent tags used in the APO-BRDU™ kit. For both kits, manufacturers instructions were followed for staining and analysis of the samples. Following the appropriate staining protocol the cells were analyzed using a Becton Dickinson (Bedford, Mass.) FACSSort
Experiments were conducted using flow cytometry to assess the effect of the IMG compounds and cannabidiol on induction of apoptosis. Briefly, compound-treated PBMCs were assayed for apoptosis using a BrdU methodology. Table 6 summarizes the effects of the IMG Compounds on cell cycle and cell viability by Trypan Blue Dye exclusion. Table 7 reduces the changes in the cell cycle to a ratio based upon the percent of cells in G2-G1. G2-G1 cells represent transition cells that are in either G2 or G1, that cannot be distinguished based upon DNA content by flow cytometry. […] This ratio cannot be used as a quantitative factor to measure fold-increases or decreases between population, but rather to access trends in the cell cycle.

PBMCs [2] = experiment: PBMC apoptosis by flow cytometry (APO-BRDU kit); format: cell-based, Human
Method: Flow cytometry studies were carried out on PHA/IL-2 induced PBMCs treated for 6 days with the various test compounds. Prior to flow cytometry the PBMCs were washed, counted and 1×10^6 cells resuspended in PBS and stained for CD4 or CD8 surface markers using anti-CD4.PE or CD8.PE (both from PharMingen) for 30 min at 4° C. The PBMC were then washed, fixed (Cytofix) and permeabilized (Cytoperm) followed by staining for apoptosis-related DNA damage. Initial experiments used the BrdU Flow Kit from PharMigen (2354KK). […] For both kits, manufacturers instructions were followed for staining and analysis of the samples. Following the appropriate staining protocol the cells were analyzed using a Becton Dickinson (Bedford, Mass.) FACSSort
In another series of experiments, the IG compounds and cannabidiol treated cells were assessed for the induction of apoptosis (see Tables 8 and 9). […] As IL-2 is an essential component for maintaining the health of PHA induced PBMCs, a second focus of these studies focuses on the effect of the compounds in the absence of IL-2.

[3] = Experiment 1, pretreat 4 h, read-out: IC50
[4] = Experiment 1, pretreat 24 h, read-out: IC50
[5] = Experiment 2, pretreat 4 h, read-out: IC50
[6] = Experiment 2, pretreat 24 h, read-out: IC50
[7] = IL-2 supplemented media, 15 μM, HIV +
[8] = IL-2 supplemented media, 15 μM, HIV −
[9] = IL-2 supplemented media, 30 μM, HIV +
[10] = IL-2 supplemented media, 30 μM, HIV −
[11] = IL-2 supplemented media, 50 μM, HIV +
[12] = IL-2 supplemented media, 50 μM, HIV −
[13] = IL-2 supplemented media, 100 μM, HIV +
[14] = IL-2 supplemented media, 100 μM, HIV −

`CC(C)=CCCC1(C)CCc2c(O)cc(C(C)(C)CCCC(C)C)cc2O1` (centres unmarked) [IG-08, 3,4-Dihydro-2-methyl-2-(4-methyl-3-pentenyl)-7-(1,1,5-trimethylhexyl)-2H-1-benzopyran-5-ol] was tested, and the IC50 (HIV-1; Experiment 1, pretreat 0 h) was 16 µM, the IC50 (HIV-1; [3]) was 10.8 µM and the IC50 (HIV-1; [4]) was 7.4 µM. It also gave an IC50 (HIV-1; Experiment 2, pretreat 0 h) of 0.9 µM, an IC50 (HIV-1; [5]) of 11 µM and an IC50 (HIV-1; [6]) of 2.6 µM. For the same compound, the “β-galactosidase production versus background” value (HIV-1) was “suppressed β-galactosidase production below background”, the “Comment: suppression of β-galactosidase activity” value (“Comment: suppression” below) (HIV-1; pretreat 0 h) was “Suppression of μ-galactosidase” and the “Comment: suppression” value (HIV-1; pretreat 4 h) was “Suppression of μ-galactosidase”. The “Comment: suppression” value (HIV-1; pretreat 24 h) was “Suppression of μ-galactosidase”, the “% 7-AAD positive per cell cycle phase G0-G1” value (PBMCs [1]; 15 μM, HIV +) was 98% and the “% 7-AAD positive per cell cycle phase G2-G1” value (PBMCs [1]; 15 μM, HIV +) was 2%. The “% 7-AAD positive per cell cycle phase G2-M” value (PBMCs [1]; 15 μM, HIV +) was 0.08%, the “% of cells in cell cycle phase” value (PBMCs [1]; 15 μM, HIV +) was 2.4% and the “% 7-AAD positive per cell cycle phase G0-G1” value (PBMCs [1]; 15 μM, HIV −) was 91%. The “% 7-AAD positive per cell cycle phase G2-G1” value (PBMCs [1]; 15 μM, HIV −) was 2%, the “% 7-AAD positive per cell cycle phase G2-M” value (PBMCs [1]; 15 μM, HIV −) was 8.7% and the “% of cells in cell cycle phase” value (PBMCs [1]; 15 μM, HIV −) was 0%. The “% 7-AAD positive per cell cycle phase G0-G1” value (PBMCs [1]; 30 μM, HIV +) was 99%, the “% 7-AAD positive per cell cycle phase G2-G1” value (PBMCs [1]; 30 μM, HIV +) was 2% and the “% 7-AAD positive per cell cycle phase G2-M” value (PBMCs [1]; 30 μM, HIV +) was 0.15%. For the same compound, the “% of cells in cell cycle phase” value (PBMCs [1]; 30 μM, HIV +) was 0.9%, the “% 7-AAD positive per cell cycle phase G0-G1” value (PBMCs [1]; 30 μM, HIV −) was 98% and the “% 7-AAD positive per cell cycle phase G2-G1” value (PBMCs [1]; 30 μM, HIV −) was 2%. The “% 7-AAD positive per cell cycle phase G2-M” value (PBMCs [1]; 30 μM, HIV −) was 0.6%, the “% of cells in cell cycle phase” value (PBMCs [1]; 30 μM, HIV −) was 1% and the “% Apoptosis” value (PBMCs [2]; IL-2 deficient media, 15 μM, HIV +) was 29%. The “% Apoptosis” value (PBMCs [2]; IL-2 deficient media, 15 μM, HIV −) was 18.4%, the “% Apoptosis” value (PBMCs [2]; IL-2 deficient media, 30 μM, HIV +) was 13.8% and the “% Apoptosis” value (PBMCs [2]; IL-2 deficient media, 30 μM, HIV −) was 11.7%. The “% Apoptosis” value (PBMCs [2]; [7]) was 19.3%, the “Fold Change” value (PBMCs [2]; [7]) was 1.2 and the “% Apoptosis” value (PBMCs [2]; [8]) was 17.3%. The “Fold Change” value (PBMCs [2]; [8]) was 1.2, the “% Apoptosis” value (PBMCs [2]; [9]) was 32.1% and the “Fold Change” value (PBMCs [2]; [9]) was 2. For the same compound, the “% Apoptosis” value (PBMCs [2]; [10]) was 27.5% and the “Fold Change” value (PBMCs [2]; [10]) was 2.3.

Compound `COc1cc(C(C)(C)CCCC(C)C)cc(OC)c1OC` [IG-07, 1-(1,1,5Trimethylhexyl)-3,4,5-trimethoxybenzene] has an IC50 (HIV-1; Experiment 1, pretreat 0 h, read-out: IC50) greater than 50 µM, an IC50 (HIV-1; [3]) greater than 50 µM and an IC50 (HIV-1; [4]) greater than 50 µM. The IC50 (HIV-1; Experiment 2, pretreat 0 h, read-out: IC50) was 16 µM, the IC50 (HIV-1; [5]) was greater than 50 µM and the IC50 (HIV-1; [6]) was greater than 50 µM. The “transient suppression of virus replication” value (HIV-1; at lower concentrations of compounds, two independent experiments) was “observed consistently”, the “β-galactosidase production versus background” value (HIV-1) was “suppressed β-galactosidase production below background” and the “% 7-AAD positive per cell cycle phase G0-G1” value (PBMCs [1]; 5 μM, HIV +) was 89%. The “% 7-AAD positive per cell cycle phase G2-G1” value (PBMCs [1]; 5 μM, HIV +) was 2%, the “% 7-AAD positive per cell cycle phase G2-M” value (PBMCs [1]; 5 μM, HIV +) was 10% and the “% of cells in cell cycle phase” value (PBMCs [1]; 5 μM, HIV +) was 0%. For the same compound, the “% 7-AAD positive per cell cycle phase G0-G1” value (PBMCs [1]; 5 μM, HIV −) was 89%, the “% 7-AAD positive per cell cycle phase G2-G1” value (PBMCs [1]; 5 μM, HIV −) was 2% and the “% 7-AAD positive per cell cycle phase G2-M” value (PBMCs [1]; 5 μM, HIV −) was 6.9%. For the same compound, the “% of cells in cell cycle phase” value (PBMCs [1]; 5 μM, HIV −) was 0%, the “% 7-AAD positive per cell cycle phase G0-G1” value (PBMCs [1]; 100 μM, HIV +) was 95% and the “% 7-AAD positive per cell cycle phase G2-G1” value (PBMCs [1]; 100 μM, HIV +) was 2%. The “% 7-AAD positive per cell cycle phase G2-M” value (PBMCs [1]; 100 μM, HIV +) was 3.1%, the “% of cells in cell cycle phase” value (PBMCs [1]; 100 μM, HIV +) was 1.7% and the “% 7-AAD positive per cell cycle phase G0-G1” value (PBMCs [1]; 100 μM, HIV −) was 94%. The “% 7-AAD positive per cell cycle phase G2-G1” value (PBMCs [1]; 100 μM, HIV −) was 2%, the “% 7-AAD positive per cell cycle phase G2-M” value (PBMCs [1]; 100 μM, HIV −) was 0.2% and the “% of cells in cell cycle phase” value (PBMCs [1]; 100 μM, HIV −) was 6%. For the same compound, the “% Apoptosis” value (PBMCs [2]; IL-2 deficient media, 50 μM, HIV +) was 32.6%, the “% Apoptosis” value (PBMCs [2]; IL-2 deficient media, 50 μM, HIV −) was 27% and the “% Apoptosis” value (PBMCs [2]; IL-2 deficient media, 100 μM, HIV +) was 64%. The “% Apoptosis” value (PBMCs [2]; IL-2 deficient media, 100 μM, HIV −) was 54%, the “% Apoptosis” value (PBMCs [2]; [11]) was 16% and the “Fold Change” value (PBMCs [2]; [11]) was 1. The “% Apoptosis” value (PBMCs [2]; [12]) was 14.4%, the “Fold Change” value (PBMCs [2]; [12]) was 1.2 and the “% Apoptosis” value (PBMCs [2]; [13]) was 22.5%. The “Fold Change” value (PBMCs [2]; [13]) was 1.4, the “% Apoptosis” value (PBMCs [2]; [14]) was 22.8% and the “Fold Change” value (PBMCs [2]; [14]) was 2.
